Data on four molecules can be found in publication PMC2957699, “Iodothyronine Interactions with the System L1 Amino Acid Exchanger in 3T3-L1 Adipocytes” (Journal of Thyroid Research, 2010).

Assay type in all cases: cell-based
The target of assay [1] is T1, LAT1 (System L1 catalytic subunit) (Mus musculus, UniProt Q9Z127).
T1 construct: gene Slc7a5; endogenous System L1 in 3T3-L1 adipocytes; with SLC3A2 (4F2hc/CD98)
Briefly: inhibition of […] [3H]phenylalanine uptake at […]. To be noted: read-out: % inhibition at 10 mM.

For assay [2], the target named is T1, LAT1 (System L1 catalytic subunit). Briefly: trans stimulation of [3H]phenylalanine efflux; inhibition of phenylalanine and T3 uptake.
For assay [3] the target is unchanged. As to the kind of experiment: saturable [3H]phenylalanine uptake (Km) in 3T3-L1 cells.
Assay [4] shares this target. As to the kind of experiment: inhibition of [3H]phenylalanine uptake ([…] at […]) and of leucine trans stimulated efflux. Particulars: read-out: % inhibition at 10 μM.

A value given as a limit tells only on which side of the number the result lay.

T1 sequence (Q9Z127 whole entry): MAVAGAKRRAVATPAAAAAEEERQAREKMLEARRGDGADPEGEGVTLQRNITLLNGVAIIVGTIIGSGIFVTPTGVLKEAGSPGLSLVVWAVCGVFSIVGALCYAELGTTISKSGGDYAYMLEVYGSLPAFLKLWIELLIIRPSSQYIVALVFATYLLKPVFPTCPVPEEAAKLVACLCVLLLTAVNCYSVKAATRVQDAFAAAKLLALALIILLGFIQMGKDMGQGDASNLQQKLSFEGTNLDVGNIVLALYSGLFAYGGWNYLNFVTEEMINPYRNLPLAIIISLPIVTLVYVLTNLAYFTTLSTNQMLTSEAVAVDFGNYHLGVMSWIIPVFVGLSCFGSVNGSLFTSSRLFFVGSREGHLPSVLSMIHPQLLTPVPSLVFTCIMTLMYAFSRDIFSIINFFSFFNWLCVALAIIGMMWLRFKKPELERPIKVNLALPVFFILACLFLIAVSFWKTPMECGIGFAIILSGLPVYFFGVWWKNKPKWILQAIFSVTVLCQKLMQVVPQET
T1 sequence (P10852 whole entry partner): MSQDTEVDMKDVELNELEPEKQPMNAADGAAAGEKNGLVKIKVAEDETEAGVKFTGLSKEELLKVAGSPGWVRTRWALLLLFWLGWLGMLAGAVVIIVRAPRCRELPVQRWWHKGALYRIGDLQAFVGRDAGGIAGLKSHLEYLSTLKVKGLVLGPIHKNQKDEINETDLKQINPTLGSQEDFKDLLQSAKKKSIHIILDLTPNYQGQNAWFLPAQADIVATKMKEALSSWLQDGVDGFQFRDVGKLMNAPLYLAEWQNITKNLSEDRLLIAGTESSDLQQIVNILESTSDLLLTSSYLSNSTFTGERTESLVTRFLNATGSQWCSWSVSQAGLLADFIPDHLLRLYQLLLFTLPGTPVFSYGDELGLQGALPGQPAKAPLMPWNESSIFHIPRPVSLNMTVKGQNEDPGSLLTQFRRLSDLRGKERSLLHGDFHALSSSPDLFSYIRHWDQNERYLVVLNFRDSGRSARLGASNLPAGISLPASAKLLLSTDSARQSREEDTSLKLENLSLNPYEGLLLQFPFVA

For `NC1(C(=O)O)CC2CCC1C2` (stereo not shown) [BCH, 2-aminobicyclo-(2,2,1)-heptane-2-carboxylic acid], in assay [1], the inhibition at 10000 µM was greater than 95%.
For `CC(C)C[C@H](N)C(=O)O` [leucine], the “trans stimulation of [3H]phenylalanine efflux; inhibition of phenylalanine and T” value in assay [2] was “Efflux of pre-loaded L-[^3H]phenylalanine from 3T3-L1 adipocytes was trans stimulated in a concentration-dependent manner by external leucine”.
Turning to `N[C@@H](Cc1ccccc1)C(=O)O` [L-phenylalanine], the Km in assay [3] was determined as 31 µM.
`N[C@@H](Cc1ccc(Oc2cc(I)c(O)c(I)c2)c(I)c1)C(=O)O` [rT3, Reverse L-triiodothyronine]: the inhibition at 10 µM in assay [4] is 57%.

Broadly, the inhibition is how much of the control response was suppressed. A word on the Km: it is the substrate concentration at which the rate is half of its maximum.
